Results reported in patent publication US20230167073A1 (Teijin Pharma Limited, priority 2020, published 2023).

target: T1, Human TRPC6 (Homo sapiens, UniProt Q9Y210); assay: Evaluation of TRPC6 channel inhibitory activity (1), FLIPR Calcium 5 Assay Kit, OAG stimulation (Compound Nos. 1-1293); assay type: cell-based; details: Human TRPC6 stably-expressing cells, OAG 30 μM, FLIPR Calcium 5 Assay Kit; read-out: Inhibitory activity (pIC50 class) (converted)
T1 construct: expressed in transfected cells
T1 sequence (Q9Y210 1-931): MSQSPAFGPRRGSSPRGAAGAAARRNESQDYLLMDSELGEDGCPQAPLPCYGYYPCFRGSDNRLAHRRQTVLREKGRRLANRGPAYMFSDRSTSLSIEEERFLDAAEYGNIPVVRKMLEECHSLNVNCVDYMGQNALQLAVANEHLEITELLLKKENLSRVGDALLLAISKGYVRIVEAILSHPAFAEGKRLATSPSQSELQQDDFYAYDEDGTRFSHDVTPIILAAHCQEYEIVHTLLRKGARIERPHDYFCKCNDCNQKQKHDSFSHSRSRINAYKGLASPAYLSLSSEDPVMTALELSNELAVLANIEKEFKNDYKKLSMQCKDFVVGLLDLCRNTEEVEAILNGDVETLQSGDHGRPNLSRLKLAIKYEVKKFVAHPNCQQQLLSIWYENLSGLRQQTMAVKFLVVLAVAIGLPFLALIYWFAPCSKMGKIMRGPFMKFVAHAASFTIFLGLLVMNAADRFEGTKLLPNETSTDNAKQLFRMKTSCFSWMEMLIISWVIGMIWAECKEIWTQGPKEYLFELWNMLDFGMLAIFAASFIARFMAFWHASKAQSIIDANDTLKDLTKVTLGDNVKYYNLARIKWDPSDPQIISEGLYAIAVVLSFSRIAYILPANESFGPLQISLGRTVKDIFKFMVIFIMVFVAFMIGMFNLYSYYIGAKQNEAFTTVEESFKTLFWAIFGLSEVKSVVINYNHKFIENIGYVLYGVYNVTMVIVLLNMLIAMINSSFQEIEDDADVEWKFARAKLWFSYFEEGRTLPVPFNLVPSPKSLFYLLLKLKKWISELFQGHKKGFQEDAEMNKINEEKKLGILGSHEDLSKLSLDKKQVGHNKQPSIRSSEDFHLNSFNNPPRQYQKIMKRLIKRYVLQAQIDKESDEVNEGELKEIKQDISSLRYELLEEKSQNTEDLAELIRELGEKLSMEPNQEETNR
Outline: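 Readout is pIC50 from four-parameter logistic fitting of inhibition of the OAG-evoked (30 μM final) fluorescence calcium signal. Human TRPC6 stable cells are dye-loaded with probenecid, and compound is applied 20 min ahead of agonist.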

Row | IC50 | Compound
1 | > 1000 nM | Cc1nc(Oc2cc(C#N)ccc2-c2ncc(CCN)cn2)cc(N2C=NCCC2)n1 [compound 881, 4-[5-(2-aminoethyl)pyrimidin-2-yl]-3-[6-(5,6-dihydro-4H-pyrimidin-1-yl)-2-methylpyrimidin-4-yl]oxybenzonitrile]
2 | > 1000 nM | Cc1nc(Oc2cc(C#N)ccc2-c2ncc(CN)cn2)cc(N2CCC2=O)n1 [compound 882, 4-[5-(aminomethyl)pyrimidin-2-yl]-3-[2-methyl-6-(2-oxoazetidin-1-yl)pyrimidin-4-yl]oxybenzonitrile]
3 | 10 to 1000 nM | Cc1nc(OCC2CC2(F)F)cc(Oc2cc(C#N)ccc2-c2ncc(CCN)cn2)n1 (stereo not drawn) [compound 883, 4-[5-(2-aminoethyl)pyrimidin-2-yl]-3-[6-[(2,2-difluorocyclopropyl)methoxy]-2-methylpyrimidin-4-yl]oxybenzonitrile]
4 | 10 to 1000 nM | Cc1nc(OCC(F)(F)F)cc(Oc2cc(C#N)ccc2-c2ncc(CCN)cn2)n1 [compound 884, 4-[5-(2-aminoethyl)pyrimidin-2-yl]-3-[2-methyl-6-(2,2,2-trifluoroethoxy)pyrimidin-4-yl]oxybenzonitrile]
5 | > 1000 nM | Cc1nc(OCC2(C)COC2)cc(Oc2cc(C#N)ccc2-c2ncc(CCN)cn2)n1 [compound 885, 4-[5-(2-aminoethyl)pyrimidin-2-yl]-3-[2-methyl-6-[(3-methyloxetan-3-yl)methoxy]pyrimidin-4-yl]oxybenzonitrile]
6 | > 1000 nM | Cc1nc(Oc2cc(C#N)ccc2-c2ncc(CCN)cn2)cc(OC2COC2)n1 [compound 886, 4-[5-(2-aminoethyl)pyrimidin-2-yl]-3-[2-methyl-6-(oxetan-3-yloxy)pyrimidin-4-yl]oxybenzonitrile]
7 | 10 to 1000 nM | Cc1nc(Oc2cc(C#N)ccc2-c2ncc(CCN)cn2)cc(OC2CCC2)n1 [compound 887, 4-[5-(2-aminoethyl)pyrimidin-2-yl]-3-(6-cyclobutyloxy-2-methylpyrimidin-4-yl)oxybenzonitrile]
8 | 10 to 1000 nM | Cc1nc(Oc2cc(C#N)ccc2-c2ncc(CCN)cn2)cc(O[C@H]2CCOC2)n1 [compound 888, 4-[5-(2-aminoethyl)pyrimidin-2-yl]-3-[2-methyl-6-[(3S)-oxolan-3-yl]oxypyrimidin-4-yl]oxybenzonitrile]
9 | > 1000 nM | Cc1nc(Oc2cc(C#N)ccc2-c2ncc(CCN)cn2)cc(O[C@@H]2CCOC2)n1 [compound 889, 4-[5-(2-aminoethyl)pyrimidin-2-yl]-3-[2-methyl-6-[(3R)-oxolan-3-yl]oxypyrimidin-4-yl]oxybenzonitrile]
10 | 10 to 1000 nM | COCCOc1cc(Oc2cc(C#N)ccc2-c2ncc(CCN)cn2)nc(C)n1 [compound 890, 4-[5-(2-aminoethyl)pyrimidin-2-yl]-3-[6-(2-methoxyethoxy)-2-methylpyrimidin-4-yl]oxybenzonitrile]
11 | 10 to 1000 nM | Cc1nc(OCC(F)F)cc(Oc2cc(C#N)ccc2-c2ncc(CCN)cn2)n1 [compound 891, 4-[5-(2-aminoethyl)pyrimidin-2-yl]-3-[6-(2,2-difluoroethoxy)-2-methylpyrimidin-4-yl]oxybenzonitrile]
12 | 10 to 1000 nM | Cc1nc(Oc2cc(C#N)ccc2-c2ncc(CCN)cn2)cc(OC2CC2)n1 [compound 892, 4-[5-(2-aminoethyl)pyrimidin-2-yl]-3-(6-cyclopropyloxy-2-methylpyrimidin-4-yl)oxybenzonitrile]
13 | > 1000 nM | Cc1nc(OCC(F)(F)F)cc(Oc2cc(C#N)ccc2-c2ncc(CN)cn2)n1 [compound 893, 4-[5-(aminomethyl)pyrimidin-2-yl]-3-[2-methyl-6-(2,2,2-trifluoroethoxy)pyrimidin-4-yl]oxybenzonitrile]
14 | > 1000 nM | Cc1nc(OCC2(C)COC2)cc(Oc2cc(C#N)ccc2-c2ncc(CN)cn2)n1 [compound 894, 4-[5-(aminomethyl)pyrimidin-2-yl]-3-[2-methyl-6-[(3-methyloxetan-3-yl)methoxy]pyrimidin-4-yl]oxybenzonitrile]
15 | > 1000 nM | Cc1nc(Oc2cc(C#N)ccc2-c2ncc(CN)cn2)cc(OC2COC2)n1 [compound 895, 4-[5-(aminomethyl)pyrimidin-2-yl]-3-[2-methyl-6-(oxetan-3-yloxy)pyrimidin-4-yl]oxybenzonitrile]
16 | 10 to 1000 nM | Cc1nc(Oc2cc(C#N)ccc2-c2ncc(CN)cn2)cc(OC(C)C)n1 [compound 896, 4-[5-(aminomethyl)pyrimidin-2-yl]-3-(2-methyl-6-propan-2-yloxypyrimidin-4-yl)oxybenzonitrile]

More lines, now with the values behind:

Row | Compound | IC50
17 | Cn1nc(N2CC(F)(F)C(F)(F)C2)cc1Oc1cc(C#N)ccc1-c1ncc(CN)cn1 [compound 866, 4-[5-(aminomethyl)pyrimidin-2-yl]-3-[2-methyl-5-(3,3,4,4-tetrafluoropyrrolidin-1-yl)pyrazol-3-yl]oxybenzonitrile] | < 10 nM
18 | COC(C)(C)CN(C)c1cc(Oc2cc(C#N)ccc2-c2ncc(CN)cn2)n(C)n1 [compound 867, 4-[5-(aminomethyl)pyrimidin-2-yl]-3-[5-[(2-methoxy-2-methylpropyl)-methylamino]-2-methylpyrazol-3-yl]oxybenzonitrile] | > 1000 nM
19 | COC(C)(C)CN(C)c1cc(Oc2cc(C#N)ccc2-c2ncc(CCN)cn2)n(C)n1 [compound 868, 4-[5-(2-aminoethyl)pyrimidin-2-yl]-3-[5-[(2-methoxy-2-methylpropyl)-methylamino]-2-methylpyrazol-3-yl]oxybenzonitrile] | 10 to 1000 nM
20 | Cn1nc(C2CC2)cc1Oc1cc(C#N)ccc1-c1ccc(N2CC[C@@H](F)[C@H](N)C2)cn1 [compound 869, 4-[5-[(4R)-3-amino-4-fluoropiperidin-1-yl]pyridin-2-yl]-3-(5-cyclopropyl-2-methylpyrazol-3-yl)oxybenzonitrile] | > 1000 nM
21 | Cn1nc(C2CC2)cc1Oc1cc(C#N)ccc1-c1ccc(CN)nn1 [compound 870, 4-[6-(aminomethyl)pyridazin-3-yl]-3-(5-cyclopropyl-2-methylpyrazol-3-yl)oxybenzonitrile] | 10 to 1000 nM
22 | Cc1cc(Oc2cc(C#N)ccc2-c2ccc(CN)nn2)cc(N2CCOCC2)n1 [compound 871, 4-[6-(aminomethyl)pyridazin-3-yl]-3-(2-methyl-6-morpholin-4-ylpyridin-4-yl)oxybenzonitrile] | > 1000 nM
23 | Cc1cc(Oc2cc(C#N)ccc2-c2ncc([C@H](F)CN)cn2)cc(N2CCOCC2)n1 [compound 872, 4-[5-[(1S)-2-amino-1-fluoroethyl]pyrimidin-2-yl]-3-(2-methyl-6-morpholin-4-ylpyridin-4-yl)oxybenzonitrile] | < 10 nM
24 | CN(CC(F)F)c1cc(Oc2cc(C#N)ccc2-c2ncc(CN)cn2)n(C)n1 [compound 873, 4-[5-(aminomethyl)pyrimidin-2-yl]-3-[5-[2,2-difluoroethyl(methyl)amino]-2-methylpyrazol-3-yl]oxybenzonitrile] | < 10 nM
25 | CCN(CC(F)F)c1cc(Oc2cc(C#N)ccc2-c2ncc(CN)cn2)n(C)n1 [compound 874, 4-[5-(aminomethyl)pyrimidin-2-yl]-3-[5-[2,2-difluoroethyl(ethyl)amino]-2-methylpyrazol-3-yl]oxybenzonitrile] | < 10 nM
26 | Cc1cc(Oc2cc(C#N)ccc2-c2ncc([C@@H](F)CN)cn2)cc(N2CCOCC2)n1 [compound 876, 4-[5-[(1R)-2-amino-1-fluoroethyl]pyrimidin-2-yl]-3-(2-methyl-6-morpholin-4-ylpyridin-4-yl)oxybenzonitrile] | < 10 nM
27 | Cn1nc(N2CC(F)(F)C(F)(F)C2)cc1Oc1cc(C#N)ccc1-c1ncc(CCN)cn1 [compound 877, 4-[5-(2-aminoethyl)pyrimidin-2-yl]-3-[2-methyl-5-(3,3,4,4-tetrafluoropyrrolidin-1-yl)pyrazol-3-yl]oxybenzonitrile] | < 10 nM
28 | Cc1nc(Oc2cc(C#N)ccc2-c2ncc([C@@H](F)CN)cn2)cc(N2CCOCC2)n1 [compound 878, 4-[5-[(1R)-2-amino-1-fluoroethyl]pyrimidin-2-yl]-3-(2-methyl-6-morpholin-4-ylpyrimidin-4-yl)oxybenzonitrile] | < 10 nM
29 | Cc1nc(Oc2cc(C#N)ccc2-c2ncc(CCN)cn2)cc(N(C)C2COC2)n1 [compound 879, 4-[5-(2-aminoethyl)pyrimidm-2-yl]-3-[2-methyl-6-[methyl(oxetan-3-yl)amino]pyrimidin-4-yl]oxybenzonitrile] | > 1000 nM
30 | Cc1nc(Oc2cc(C#N)ccc2-c2ncc(CCN)cn2)cc(N2CCCC2=O)n1 [compound 880, 4-[5-(2-aminoethyl)pyrimidin-2-yl]-3-[2-methyl-6-(2-oxopyrrolidin-1-yl)pyrimidin-4-yl]oxybenzonitrile] | 10 to 1000 nM
